Laboratory results from patent US4230711A (priority 1979, dated 1980).

How the values were obtained:
fungi = conditions: cited from earlier work
[1] = system: Phytophthora infestans conidia; type: in vivo; conditions: @ 250 ppm; tomato (Bonny Best) seedlings sprayed, inoculated one day later; approximately 7 days; relative to untreated check plants
[2] = system: Alternaria solani conidia; conditions: in vivo
Septoria apii = type: in vivo; conditions: @ 250 ppm; celery (Utah) plants; approximately 14 days; relative to untreated check plants
Erysiphe polygoni = conditions: in vivo

O=C1c2ccccc2C(=O)N1SC(Cl)(Cl)Cl [N-(trichloromethylthio)phthalimide]
fungicidal activity (fungi): having fungicidal activity

CC1(C)C(=O)N(SC(Cl)(Cl)Cl)C(=O)c2ccccc21 [Compound 1, N-(trichloromethylthio)-4,4-dimethyl homophthalimide]
% Control, Tomato Late Blight [1]: 95%
% Control, Tomato Early Blight [2]: 33%
% Control, Celery Late Blight (Septoria apii): 50%
% Control, Bean Powdery Mildew (Erysiphe polygoni): 96%

CC1(C)C(=O)NC(=O)c2ccccc21 [Compound 3, 4,4-dimethyl homophthalimide]
% Control, Tomato Late Blight [1]: 0%
% Control, Tomato Early Blight [2]: 0%
% Control, Celery Late Blight (Septoria apii): 0%
% Control, Bean Powdery Mildew (Erysiphe polygoni): 0%
